pIC50: −log10 of the molar value. Where a name gives a salt, the structure may show the parent alone. Read-outs that look alike come from different tables or passages of the source.
What was measured:
[1] = target: T1, GSK3β (Homo sapiens, UniProt P49841); assay: GSK3β kinase assay; assay type: biochemical
T1 construct: purchased Upstate 14-306
Experimental: • 1. Reaction Buffer: 8 mM MOPS, pH 7.0, 0.2 mM EDTA, 110 mM magnesium acetate. • 2. GSK3β, active: 5-40 ng per assay point. Dilute to 0.5-4 ng/μl in Reaction Buffer containing 0.03% Brij-35. • 3. Phospho-Glycogen Synthase Peptide-2 (Catalog #12-241): Prepare a 250 μM stock. Use 10 μl per assay point for a final assay concentration of 62.5 μM per assay point. • 4. [γ-^32P]ATP: Stock 1 mCi/100 μl (3000 Ci/mmol, obtained from Perkin Elmer, Cat. # BLU002A). Make 10 μl aliquots (100 μCi/vial). Before starting the assay, dilute an aliquot to 1 μCi/μl with 90 μl of 75 mM magnesium chloride and 500 μM unlabeled ATP in 20 mM MOPS, pH 7.2, 25 mM β-glycerol phosphate, 5 mM EGTA, 1 mM sodium orthovanadate, 1 mM dithiothreitol.
• 1. Add 10 μl of Reaction Buffer per assay. • 2. Add 10 μl of substrate peptide [final assay concentration of 62.5 μM]. • 3. Add 10 μl of GSK3β, active [5-40 ng per assay]. • 4. Add 10 μl of the diluted [^32P]ATP mixture. • 5. Incubate for 30 minutes at 30° C. • 6. Spot 25 μl onto the center of a 2 cm×2 cm P81 paper square. • 7. Wash the assay squares five times with 0.75% phosphoric acid. • 8. Wash the assay squares once with acetone. • 9. Transfer the assay squares to vial and add 5 ml scintillation cocktail. • 10. Read in scintillation counter. Compare cpm of enzyme samples to cpm of control samples that contain no enzyme (background control).

[2] = target: T2, Abl T315I (Homo sapiens, UniProt P00519, T315I); assay: Abl T315I kinase assay; assay type: biochemical
T2 construct: purchased Upstate 14-522
Experimental: • 1. 5× Reaction Buffer: 40 mM MOPS, pH 7.0, 1 mM EDTA. • 2. Enzyme Dilution Buffer (EDB): 20 mM MOPS, pH 7.0, 1 mM EDTA, 0.01% Brij-35, 5% glycerol, 0.1% β-mercaptoethanol, 1 mg/ml BSA. • 3. […] Use 2.5 μl per assay point. • 4. […] Use 2.5 μl per assay point for a final assay concentration of 50 μM per assay point. • 5. [γ-^32P]ATP: Stock 1 mCi/100 μl (3000 Ci/mmol, obtained from PerkinElmer, Cat. # BLU002A). Make 10 μl aliquots (100 μCi/vial).
• 1. Add 5 μl of 5× Reaction Buffer per assay. • 2. Add 2.5 μl of Abltide (50 μM). • 3. […] Add 5 μl sterile, distilled water. • 5. Add 10 μl of the diluted [γ-^32P]ATP solution. • 6. Incubate for 10 minutes at 30° C. • 7. Transfer a 20 μl aliquot onto the center of a 2 cm×2 cm P81 paper. • 8. […] Wash the assay squares once for 5 minutes with acetone. • 10. Transfer the assay squares to vial and add 5 ml scintillation cocktail. • 11. Read in scintillation counter. Compare cpm of enzyme samples to cpm of control samples that contain background control.

[3] = target: T3, Lyn (Homo sapiens, UniProt P07948); assay: Lyn kinase assay; assay type: biochemical
T3 construct: purchased Upstate 14-510
T3 sequence (P07948 whole entry): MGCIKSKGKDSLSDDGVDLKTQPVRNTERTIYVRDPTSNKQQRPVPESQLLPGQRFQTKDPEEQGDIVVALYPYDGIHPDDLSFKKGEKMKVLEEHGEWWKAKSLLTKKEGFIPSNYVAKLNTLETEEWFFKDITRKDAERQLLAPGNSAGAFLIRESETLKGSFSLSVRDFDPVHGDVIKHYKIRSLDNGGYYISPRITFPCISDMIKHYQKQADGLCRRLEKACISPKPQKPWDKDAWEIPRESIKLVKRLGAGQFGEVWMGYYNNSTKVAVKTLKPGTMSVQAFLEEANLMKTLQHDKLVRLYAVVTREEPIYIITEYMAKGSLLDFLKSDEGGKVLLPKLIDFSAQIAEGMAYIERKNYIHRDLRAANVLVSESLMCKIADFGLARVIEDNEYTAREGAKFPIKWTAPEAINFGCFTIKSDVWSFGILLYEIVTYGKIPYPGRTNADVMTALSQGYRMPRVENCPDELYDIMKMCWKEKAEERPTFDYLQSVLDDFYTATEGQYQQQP
Experimental: • 1. 10× Reaction Buffer: 500 mM Tris-HCl, pH 7.5, 1 mM EGTA, 1 mM sodium orthovanadate, 1% 2-mercaptoethanol. • 2. Enzyme Dilution Buffer (EDB): 50 mM Tris-HCl, pH 7.5, 1 mM EGTA, 0.1 mM sodium orthovanadate, 0.03% Brij-35, 0.1% 2-mercaptoethanol, 1 mg/ml BSA. • 3. Lyn, active: Dilute to 2-16 ng/μl with EDB. Use 2.5 μl per assay point. • 4. Poly(Glu-4-Tyr) (4:1): Prepare a 1 mg/ml stock. Use 2.5 μl per assay point for a final concentration of 0.1 mg/ml per assay point. • 5. [γ-^32P]ATP: Stock 1 mCi/100 μl (3000 Ci/mmol, obtained from PerkinElmer, Cat. # BLU002A). Make 10 μl aliquots (100 μCi/vial). Before starting the assay, dilute an aliquot to 1 μCi/μl with 90 μl of 75 mM MgCl2 and 500 μM cold ATP in 20 mM MOPS, pH 7.2, 25 mM β-glycerol phosphate, 5 mM EGTA, 1 mM sodium orthovanadate, 1 mM dithiothreitol.
• 1. Add 2.5 μl of 10× Reaction Buffer per assay. • 2. Add 2.5 μl of Poly (Glu-4-Tyr) (4:1). • 3. Add 2.5 μl (5-40 ng) Lyn, active. • 4. Add 7.5 μl of sterile, distilled water. • 5. Add 10 μl of the diluted [γ-^32P]ATP mixture. • 6. Incubate for 10 minutes at 30° C. • 7. Transfer a 20 μl aliquot onto the center of a 2 cm×2 cm P81 paper. • 8. Wash the assay squares three times for 5 minutes with 0.75% phosphoric acid. • 9. Wash the assay squares once for 5 minutes with acetone. • 10. Transfer the assay squares to vial and add 5 ml scintillation cocktail. • 11. Read in scintillation counter. Compare cpm of enzyme samples to cpm of control samples that contain background control.

[4] = tested on: A2780; assay: Calcein AM viability assay, A2780; assay type: cell-based; conditions: Homo sapiens
Experimental: Analogous cell viability assays against other cell lines were conducted as above. […] Protocol for the Calcein AM viability assay.
HCT-116 or IMR90 cells were recovered from sub-confluent plates by trypsinization and 1,000 or 4,000 cells, respectively, were plated in 24-well dishes and incubated overnight at 37° C., 5% CO2. HCT-116 cells were cultured in RPMI-1640, 10% FCS, and IMR90 cells were cultured in Minimum Essential Medium-alpha, 10% FCS. After overnight incubation to allow adherence, the media was aspirated from each well and replaced with media containing a test compound at a concentration from 0 to 250 nM, spanning a total of 7 doses. The plates were returned to the incubator and cultured for an additional 72 hours (3 days). […] After 72-hours incubation with the test compound, the cells were washed twice with 1×PBS, taking special care to remove all residual buffer.
A 5 μM Calcein AM solution was prepared by dissolving a 50 μg aliquot of Calcein (Molecular Probes catalog #C3100) in 50 μl DMSO. After the Calcein had completely dissolved (10 minutes at room temperature), it was diluted into 10 ml PBS. Calcein/PBS (0.5 ml) was added to each well. The plates were incubated for 75 minutes at 37° C. (protected from light) and the fluorescent signal was read on a fluorescent plate reader (excitation 485/20 and emission 530/25).

[5] = kinase panel, 10 μM ATP, read-out: GSK3β IC50
[6] = read-out: GSK3B Inhibition (IC50)
[7] = read-out: Inhibition (IC50), Table II (accession U07563, no symbol)
[8] = read-out: LYN Inhibition (IC50)

T1 sequence (P49841 whole entry): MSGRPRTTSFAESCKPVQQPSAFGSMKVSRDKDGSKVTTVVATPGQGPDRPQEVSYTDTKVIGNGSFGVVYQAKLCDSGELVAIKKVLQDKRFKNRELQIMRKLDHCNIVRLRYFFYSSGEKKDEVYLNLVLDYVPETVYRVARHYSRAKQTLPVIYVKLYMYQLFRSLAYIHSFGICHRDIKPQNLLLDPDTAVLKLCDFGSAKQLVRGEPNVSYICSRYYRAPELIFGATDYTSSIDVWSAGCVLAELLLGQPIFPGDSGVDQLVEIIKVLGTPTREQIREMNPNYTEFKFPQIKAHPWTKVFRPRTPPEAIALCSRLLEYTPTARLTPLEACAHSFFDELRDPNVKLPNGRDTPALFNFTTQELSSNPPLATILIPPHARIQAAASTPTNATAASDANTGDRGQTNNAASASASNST

SMILES | pIC50 [1, 5] | pIC50 [1, 6] | pIC50 ([2]; read-out: Abl T315I IC50) | pIC50 [2, 7] | pIC50 [3, 8] | pIC50 [4] | pIC50 ([3]; kinase panel, 10 μM ATP, read-out: Lyn IC50)
CC(C)N1CCN(C(=O)COc2ccc(-c3n[nH]c4c3C(=O)c3c(NC(=O)NN5CCOCC5)cccc3-4)cc2)CC1 [Compound A37] | > 8.52 | > 8.30 | 7.06 | > 7.00 | > 7.30 | > 8.00 | 
COCCN1CCN(Cc2ccc(-c3n[nH]c4c3C(=O)c3c(NC(=O)NN5CCOCC5)cccc3-4)cc2)CC1 [Compound B16, N-[3-(4-{[4-(2-methoxyethyl)piperazinyl]methyl}phenyl)-4-oxoindeno[2,3-d]pyrazol-5-yl](morpholin-4-ylamino)carboxamide dihydrochloride] | > 7.00 | > 8.30 | ~7.00 | > 7.00 | > 7.00 | > 8.00 | > 7.00
